Measurements as given in patent US6525001B1, “Substituted pyrimidine and pyridine herbicides” (Mid-American Commercialization Corporation, priority 1997, dated 2003).

Legend:
Assay type in all cases: in vivo
[1] = system: johnsongrass (Sorghum halepense); assay: Test C; design: key: 0 was no effect; 100 was complete control; details: PREEMERGENCE
[2] = system: redroot pigweed (Amaranthus retroflexus); assay: Test C; design: key: 0 was no effect; 100 was complete control; details: PREEMERGENCE
[3] = system: guineagrass (Panicum maximum); assay: Test E pre-/postemergence/post directed; design: key: 0 is no effect; 100 is complete control
How it was run: (§1)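 Greenhouse pots; compound in non-phytotoxic solvent with surfactant, sprayed preemergence within one day of planting, postemergence at two to four leaf stage (three to twenty cm), or post directed to plant base and soil. Visual injury rated 13 to 21 days after application, 0 (none) to 100 (complete control).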

[4] = system: dallisgrass (Paspalum dilatatum); assay: Test E pre-/postemergence/post directed; design: key: 0 is no effect; 100 is complete control
How it was run: as §1

[5] = system: common purslane (Portulaca oleracea); assay: Test E pre-/postemergence/post directed; design: key: 0 is no effect; 100 is complete control
How it was run: as §1

[6] = system: tall mallow (Malva sylvestris); assay: Test E pre-/postemergence/post directed; design: key: 0 is no effect; 100 is complete control; details: PREEMERGENCE
How it was run: as §1

[7] = system: pigweed (Amaranthus retroflexus); assay: Test B pre-/postemergence; design: key: 0 is no effect; 10 is complete control
How it was run: (§2)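 Response scores run from 0, meaning no effect, to 10, meaning complete control, assigned by eye relative to controls twelve to sixteen days after spraying. Treatment was both preemergence on planted seed and postemergence on plants at the 1- to 4-leaf stage.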

[8] = system: momingglory (Ipomoea hederacea); assay: Test B pre-/postemergence; design: key: 0 is no effect; 10 is complete control
How it was run: as §2

[9] = system: cocklebur (Xanthium strumarium); assay: Test B pre-/postemergence; design: key: 0 is no effect; 10 is complete control; details: for Plant response rating, Cocklebur: Postemergence
How it was run: as §2

[10] = system: blackgrass (Alopecurus myosuroides); assay: Test B pre-/postemergence; design: key: 0 is no effect; 10 is complete control
How it was run: as §2

[11] = system: broadleaf signalgrass (Brachiaria decumbens); assay: Test B pre-/postemergence; design: key: 0 is no effect; 10 is complete control
How it was run: as §2

[12] = system: arrowleaf sida (Sida rhombifolia); assay: Test C; details: PREEMERGENCE

Cc1cnc(-c2ccc(C(F)(F)F)cc2)nc1Cc1cccc(OC(F)(F)F)c1 [Compound 15]
Plant response rating, Johnsongrass ([1]; Rate 35 g/ha): 35 | Plant response rating, Johnsongrass ([1]; Rate 70 g/ha): 85 | Plant response rating, Johnsongrass ([1]; Rate 140 g/ha): 100 | Plant response rating, Redroot pigweed ([2]; Rate 35 g/ha): 60 | Plant response rating, Redroot pigweed ([2]; Rate 70 g/ha): 85 | Plant response rating, Redroot pigweed ([2]; Rate 140 g/ha): 100 | Plant response rating, Guineagrass ([3]; POSTEMERGENCE, Rate 125 g/ha): 20 | Plant response rating, Guineagrass ([3]; POSTEMERGENCE, Rate 250 g/ha): 40 | Plant response rating, Guineagrass ([3]; PREEMERGENCE, Rate 32 g/ha): 90 | Plant response rating, Guineagrass ([3]; PREEMERGENCE, Rate 64 g/ha): 100 | Plant response rating, Guineagrass ([3]; PREEMERGENCE, Rate 125 g/ha): 100 | Plant response rating, Guineagrass ([3]; PREEMERGENCE, Rate 250 g/ha): 100 | Plant response rating, Dallisgrass ([4]; POSTEMERGENCE, Rate 125 g/ha): 5 | Plant response rating, Dallisgrass ([4]; POSTEMERGENCE, Rate 250 g/ha): 50 | Plant response rating, Dallisgrass ([4]; PREEMERGENCE, Rate 32 g/ha): 95 | Plant response rating, Dallisgrass ([4]; PREEMERGENCE, Rate 64 g/ha): 100 | Plant response rating, Dallisgrass ([4]; PREEMERGENCE, Rate 125 g/ha): 100 | Plant response rating, Dallisgrass ([4]; PREEMERGENCE, Rate 250 g/ha): 100 | Plant response rating, Com. purslane ([5]; POSTEMERGENCE, Rate 125 g/ha): 75 | Plant response rating, Com. purslane ([5]; POSTEMERGENCE, Rate 250 g/ha): 80 | Plant response rating, Com. purslane ([5]; PREEMERGENCE, Rate 32 g/ha): 100 | Plant response rating, Com. purslane ([5]; PREEMERGENCE, Rate 64 g/ha): 100 | Plant response rating, Com. purslane ([5]; PREEMERGENCE, Rate 125 g/ha): 100 | Plant response rating, Com. purslane ([5]; PREEMERGENCE, Rate 250 g/ha): 100 | Plant response rating, Tall Mallow ([6]; Rate 32 g/ha): 98 | Plant response rating, Tall Mallow ([6]; Rate 64 g/ha): 100 | Plant response rating, Tall Mallow ([6]; Rate 125 g/ha): 100 | Plant response rating, Tall Mallow ([6]; Rate 250 g/ha): 98 | Plant response rating, Redroot pigweed ([7]; Rate 62 g/ha, Postemergence): 9 | Redroot pigweed plant response rating ([7]; Rate 62 g/ha, Preemergence): 6 | Plant response rating, Redroot pigweed ([7]; Rate 125 g/ha, Postemergence): 9 | Redroot pigweed plant response rating ([7]; Rate 125 g/ha, Preemergence): 10 | Plant response rating, Redroot pigweed ([7]; Rate 250 g/ha, Postemergence): 9 | Plant response rating, Redroot pigweed ([7]; Rate 250 g/ha, Preemergence): 10 | Plant response rating, Morningglory ([8]; Rate 62 g/ha, Postemergence): 8 | Morningglory plant response rating ([8]; Rate 62 g/ha, Preemergence): 4 | Plant response rating, Morningglory ([8]; Rate 125 g/ha, Postemergence): 8 | Morningglory plant response rating ([8]; Rate 125 g/ha, Preemergence): 7 | Plant response rating, Morningglory ([8]; Rate 250 g/ha, Postemergence): 9 | Plant response rating, Morningglory ([8]; Rate 250 g/ha, Preemergence): 9 | Plant response rating, Cocklebur ([9]; Rate 62 g/ha): 9 | Plant response rating, Cocklebur ([9]; Rate 125 g/ha): 9 | Cocklebur plant response rating ([9]; Rate 125 g/ha, Preemergence): 1 | Plant response rating, Cocklebur ([9]; Rate 250 g/ha): 10 | Plant response rating, Blackgrass ([10]; Rate 62 g/ha, Postemergence): 6 | Blackgrass plant response rating ([10]; Rate 62 g/ha, Preemergence): 9 | Plant response rating, Blackgrass ([10]; Rate 125 g/ha, Postemergence): 9 | Blackgrass plant response rating ([10]; Rate 125 g/ha, Preemergence): 10 | Plant response rating, Blackgrass ([10]; Rate 250 g/ha, Postemergence): 9 | Plant response rating, Blackgrass ([10]; Rate 250 g/ha, Preemergence): 10 | Plant response rating, B. signalgrass ([11]; Rate 62 g/ha, Postemergence): 4 | B. signalgrass plant response rating ([11]; Rate 62 g/ha, Preemergence): 9 | Plant response rating, B. signalgrass ([11]; Rate 125 g/ha, Postemergence): 4 | B. signalgrass plant response rating ([11]; Rate 125 g/ha, Preemergence): 9 | Plant response rating, B. signalgrass ([11]; Rate 250 g/ha, Postemergence): 8 | Plant response rating, B. signalgrass ([11]; Rate 250 g/ha, Preemergence): 9 | Plant response rating, Arrowleaf sida ([12]; Rate 35 g/ha): 80 | Plant response rating, Arrowleaf sida ([12]; Rate 70 g/ha): 85 | Plant response rating, Arrowleaf sida ([12]; Rate 140 g/ha): 85
